Measurements published in article PMC5224920, “Assessing the mechanism and therapeutic potential of modulators of the human Mediator complex-associated protein kinases” (eLife, 2016).

Test system: 12 single or co-culture in vitro tissue models of primary cells
Assay: Culture/co-culture cell model panel, extracellular biomarkers (DiscoveRx); on CCL2/MCP-1: reference of the scale not given here; on CD141/Thrombomodulin: reference of the scale not given here; on CD142/Tissue Factor: reference of the scale not given here; on CD38: reference of the scale not given here; on CD40: reference of the scale not given here; on CD69: reference of the scale not given here; on CXCL8/IL-8: reference of the scale not given here; on CXCL9/MIG: reference of the scale not given here; on IL-1alpha: reference of the scale not given here; on M-CSF: reference of the scale not given here; on PBMC Cytotoxicity: reference of the scale not given here; on SRB: reference of the scale not given here; on sPGE2: reference of the scale not given here; on sTNF-alpha: reference of the scale not given here
Format: cell-based, human
[1] = HDF3CGF stimulated fibroblasts, 1.00E3 nM
[2] = HDF3CGF stimulated fibroblasts, 1.00E4 nM
[3] = HPNo Huvec+PBMC unstimulated, 1.00E0 nM
[4] = HPNo Huvec+PBMC unstimulated, 1.00E1 nM
[5] = HPNo Huvec+PBMC unstimulated, 1.00E2 nM
[6] = HPNo Huvec+PBMC unstimulated, 1.00E3 nM
[7] = HPNo Huvec+PBMC unstimulated, 1.00E4 nM

## Cn1ncc2cc(-c3cnc(N)c(Cl)c3N3CCC4(CCNC4=O)CC3)ccc21 [CMPD 3]
[1]
  EGFR: -0.071
  M-CSF: -0.083
  MMP-1: 0.021
  PAI-I: -0.046
  Proliferation_72hr: -0.287
  SRB: -0.024
  TIMP-1: -0.058
  TIMP-2: 0.170
[2]
  CCL2/MCP-1: -0.120
  CD54/ICAM-1: -0.048
  CD106/VCAM-1: 0.030
  CXCL8/IL-8: -0.092
  CXCL9/MIG: -0.077
  CXCL10/IP-10: 0.009
  CXCL11/I-TAC: -0.045
  Collagen I: 0.097
  Collagen III: 0.0018
  EGFR: 0.023
  M-CSF: -0.150
  MMP-1: 0.056
  PAI-I: -0.210
  Proliferation_72hr: -0.515
  SRB: -0.209
  TIMP-1: -0.045
  TIMP-2: 0.276
[3]
  CCL2/MCP-1: 0.009
  CD38: 0.004
  CD40: -0.028
  CD106/VCAM-1: 0.042
  CD141/Thrombomodulin: 0.010
  CD142/Tissue Factor: 0.089
[4]
  CCL2/MCP-1: 0.017
  CD38: -0.049
  CD40: -0.059
  CD106/VCAM-1: 0.134
  CD141/Thrombomodulin: -0.016
  CD142/Tissue Factor: 0.039
[5]
  CCL2/MCP-1: 0.001
  CD38: -0.011
  CD40: -0.067
  CD106/VCAM-1: 0.206
  CD141/Thrombomodulin: 0.008
  CD142/Tissue Factor: 0.039
[6]
  CCL2/MCP-1: -0.049
  CD38: -0.041
  CD40: -0.024
  CD106/VCAM-1: 0.098
  CD141/Thrombomodulin: 0.007
  CD142/Tissue Factor: 0.007
[7]
  CCL2/MCP-1: -0.004
  CD38: -0.070
  CD40: -0.022
  CD106/VCAM-1: 0.069
  CD141/Thrombomodulin: 0.032
  CD142/Tissue Factor: -0.024
HPNo, 1.00E0 nM
  CD69: -0.011
  CXCL8/IL-8: 0.034
  CXCL9/MIG: 0.060
  M-CSF: 0.037
  SRB: -0.058
  sPGE2: 0.025
  sTNF-alpha: 0.138
HPNo, 1.00E1 nM
  CD69: -0.011
  CXCL8/IL-8: 0.00458
  CXCL9/MIG: 0.092
  M-CSF: 0.011
  SRB: -0.00131
  sPGE2: 0.022
  sTNF-alpha: 0.068
HPNo, 1.00E2 nM
  CD69: 0.017
  CXCL8/IL-8: -0.00647
  CXCL9/MIG: 0.045
  M-CSF: -0.043
  SRB: 0.006
  sPGE2: 0.139
  sTNF-alpha: 0.492
HPNo, 1.00E3 nM
  CD69: -0.017
  CXCL8/IL-8: -0.012
  CXCL9/MIG: 0.014
  M-CSF: -0.056
  SRB: 0.008
  sPGE2: 0.056
  sTNF-alpha: -0.00633
HPNo, 1.00E4 nM
  CD69: 0.004
  CXCL8/IL-8: -0.002
  CXCL9/MIG: -0.052
  M-CSF: -0.079
  SRB: -0.058
  sPGE2: 0.016
  sTNF-alpha: 0.025
LPS Huvec+PBMC, 1.00E0 nM
  CCL2/MCP-1: 0.009
  CD40: -0.011
  CD69: 0.028
  CD106/VCAM-1: 0.028
  CD141/Thrombomodulin: 0.019
  CD142/Tissue Factor: 0.057
  CXCL8/IL-8: 0.020
  IL-1alpha: 0.064
  M-CSF: 0.051
  SRB: -0.018
  sPGE2: 0.033
  sTNF-alpha: 0.017
LPS Huvec+PBMC, 1.00E1 nM
  CCL2/MCP-1: -0.00212
  CD40: -0.078
  CD69: -0.00157
  CD106/VCAM-1: 0.056
  CD141/Thrombomodulin: 0.042
  CD142/Tissue Factor: 0.050
  CXCL8/IL-8: -0.028
  IL-1alpha: -0.012
  M-CSF: -0.018
  SRB: -0.053
  sPGE2: 0.128
  sTNF-alpha: 0.024
LPS Huvec+PBMC, 1.00E2 nM
  CCL2/MCP-1: -0.069
  CD40: -0.092
  CD69: 0.048
  CD106/VCAM-1: 0.047
  CD141/Thrombomodulin: 0.046
  CD142/Tissue Factor: 0.071
  CXCL8/IL-8: -0.091
  IL-1alpha: -0.007
  M-CSF: -0.020
  SRB: -0.076
  sPGE2: 0.096
  sTNF-alpha: 0.028
LPS Huvec+PBMC, 1.00E3 nM
  CCL2/MCP-1: -0.112
  CD40: -0.089
  CD69: 0.015
  CD106/VCAM-1: 0.022
  CD141/Thrombomodulin: 0.052
  CD142/Tissue Factor: 0.071
  CXCL8/IL-8: -0.169
  IL-1alpha: -0.064
  M-CSF: -0.008
  SRB: -0.082
  sPGE2: 0.040
  sTNF-alpha: -0.030
LPS Huvec+PBMC, 1.00E4 nM
  CCL2/MCP-1: -0.187
  CD40: -0.133
  CD69: -0.043
  CD106/VCAM-1: 0.00362
  CD141/Thrombomodulin: 0.038
  CD142/Tissue Factor: 0.121
  CXCL8/IL-8: -0.222
  IL-1alpha: -0.226
  M-CSF: -0.022
  SRB: -0.142
  sPGE2: 0.008
  sTNF-alpha: -0.328
SAg, 1.00E0 nM
  CCL2/MCP-1: 0.030
  CD38: 0.023
  CD40: -0.041
  CD69: 0.00162
  CXCL8/IL-8: 0.064
  CXCL9/MIG: 0.013
  PBMC Cytotoxicity: 0.039
  Proliferation: 0.019
  SRB: -0.013
SAg, 1.00E1 nM
  CCL2/MCP-1: -0.016
  CD38: -0.043
  CD40: -0.128
  CD69: 0.037
  CXCL8/IL-8: -0.047
  CXCL9/MIG: -0.015
  PBMC Cytotoxicity: 0.014
  Proliferation: 0.030
  SRB: -0.033
SAg, 1.00E2 nM
  CCL2/MCP-1: -0.038
  CD38: -0.050
  CD40: -0.143
  CD69: 0.053
  CXCL8/IL-8: -0.167
  CXCL9/MIG: -0.040
  PBMC Cytotoxicity: 0.014
  Proliferation: 0.018
  SRB: -0.052
SAg, 1.00E3 nM
  CCL2/MCP-1: -0.092
  CD38: -0.050
  CD40: -0.108
  CD69: 0.059
  CXCL8/IL-8: -0.271
  CXCL9/MIG: -0.072
  PBMC Cytotoxicity: -0.014
  Proliferation: 0.007
  SRB: -0.055
SAg, 1.00E4 nM
  CCL2/MCP-1: -0.171
  CD38: -0.109
  CD40: -0.222
  CD69: -0.076
  CXCL8/IL-8: -0.221
  CXCL9/MIG: -0.086
  PBMC Cytotoxicity: -0.027
  Proliferation: -0.217
  SRB: -0.150
